Data on three compounds can be found in patent US8822754B2, “Ecdysone receptor-based inducible gene expression system” (Intrexon Corporation, priority 2000, dated 2014).

The test system of one series is GAL4EcR + VP16RXR. The series can be described thus: Transactivation of reporter genes through switch 1.1 in 3T3 cells. The note with it: GAL4CfEcRDEF/VP16MmRXRDEF (switch 1.1), 1.0 μM ligand, 48 hr. From the text:
(§1) In various cellular backgrounds, including mammalian cells, insect ecdysone receptor (EcR) heterodimerizes with retinoid X receptor (RXR) and, upon binding of ligand, transactivates genes under the control of ecdysone response elements. Applicants constructed several EcR-based gene expression cassettes based on the spruce budworm Choristoneura fumiferana EcR (“CfEcR”; full length polynucleotide and amino acid sequences are set forth in SEQ ID NO: 49 and SEQ ID NO: 50, respectively), C. fumiferana ultraspiracle (“CfUSP”; full length polynucleotide and amino acid sequences are set forth in SEQ ID NO: 51 and SEQ ID NO: 52, respectively), and mouse Mus musculus RXRα (MmRXRα; full length polynucleotide and amino acid sequences are set forth in SEQ ID NO: 53 and SEQ ID NO: 54, respectively). The prepared receptor constructs comprise a ligand binding domain of EcR and of RXR or of USP; a DNA binding domain of GAL4 or of EcR; and an activation domain of VP16. The reporter constructs include a reporter gene, luciferase or LacZ, operably linked to a synthetic promoter construct that comprises either GAL4 or EcR/USP binding sites (response elements). Various combinations of these receptor and reporter constructs were cotransfected into CHO, NIH3T3, CV1 and 293 cells. […] Reporter gene expression activities were assayed at 24 hr or 48 hr after ligand addition.
(§2) The same procedures described for CHO cells were followed for 3T3 cells as well with two modifications. The cells were plated when they reached 50% confluency. 125,000 or 50,000 or 25,000 cells were plated per well of 6- or 12- or 24-well plates respectively. The GAl4EcR/VP16RXR and reporter vector DNAs were transfected into NIH3T3 cells, the transfected cells were grown in medium containing PonA, MurA, N-(2-ethyl-3-methoxybenzoyl)-N′-(3,5-dimethylbenzoyl)-N′-t-butylhydrazine, or N-(3,4-(1,2-ethylenedioxy)-2-methylbenzoyl)-N′-(3,5-dimethylbenzoyl)-N′-tert-butylhydrazine for 48 hr. The ligand treatments were performed as described in the CHO cell section above.
(§3) Cells were harvested 24-48 hr after adding ligands. 125, 250, or 500 μl of passive lysis buffer (part of Dual-luciferase™ reporter assay system from Promega Corporation) were added to each well of 24- or 12- or […] respectively. The plates were placed on a rotary shaker for 15 min. Twenty μl of lysate was assayed. Luciferase activity was measured using Dual-luciferase™ reporter assay system from Promega Corporation following the manufacturer's instructions. β-Galactosidase was measured using Galacto-Star™ assay kit from TROPIX following the manufacturer's instructions. All luciferase and β-galactosidase activities were normalized using Renilla luciferase as a standard. Fold activities were calculated by dividing normalized relative light units (“RLU”) in ligand treated cells with normalized RLU in DMSO treated cells (untreated control).

The test system of a further series is GAL4RXR + VP16CfEcR. In words: Transactivation of reporter genes through switch 1.3 in 3T3 cells. The note with it: GAL4MmRXRDEF/VP16CfEcRCDEF (switch 1.3), 1.0 μM ligand.
Text: as §1
MmRXRDEF (SEQ ID NO: 22) was fused to a GAL4DNABD (SEQ ID NO: 41) and CfEcRCDEF (SEQ ID NO: 1) was fused to a VP16AD (SEQ ED NO: 45).
as §2, §3
For orientation: Reporter assays use an easily measured gene product as a stand-in for the process of interest.

For the next series, the system named is CfEcR. In words: Comparison of switches in the mammalian cell lines tested (Tables 1-4). The note with it: see Tables 1-4. The format is cell-based, Choristoneura fumiferana. The method, then: Several commercially available lipofactors as well as electroporation methods were evaluated and the best conditions for transfection of each cell line were developed. CHO, NIH3T3, 293 and CV1 cells were grown to 60% confluency. DNAs corresponding, to the various switch constructs outlined in Examples 1.1 through 1.10 were transfected into CHO cells, NIH3T3 cells, 293 cells, or CV1 cells as follows.
Cells were harvested 24-48 hr after adding ligands. […] Twenty μl of lysate was assayed.

The next series deals with CfEcR/RXR-based switch. The series can be described thus: Luciferase reporter assay of truncated CfEcR and MmRXR receptor pairs in NIH3T3 cells (Example 2). The format is cell-based, Choristoneura fumiferana. The note with it: NIH3T3 cells, 0, 1, 5 or 25 uM ligand, 48 hr; FIGS. 11-14. On the procedure:
Briefly, polynucleotides encoding EcR or RXR receptors were truncated at the junctions of A/B, C, D, E and F domains and fused to either a GAL4 DNA binding domain encoding polynucleotide (SEQ ID NO: 41) for CfEcR, or a VP16 activation domain encoding polynucleotide (SEQ ID NO: 45) for MmRXR as described in Example 1. The resulting receptor truncation/fusion polypeptides were assayed in NIH3T3 cells. Plasmid pFRLUC (Stratagene) encoding a luciferase polypeptide was used as a reporter gene construct and pTKRL (Promega) encoding a Renilla luciferase polypeptide under the control of the constitutive TK promoter was used to normalize the transfections as described above. The analysis was performed in triplicates and mean luciferase counts were determined as described above.
Gene expression cassettes comprising polynucleotides encoding either full length or truncated CfEcR polypeptides fused to a GALA. […] The cells were harvested, lysed and luciferase reporter activity was measured in the cell lysates. […]

On to `CC(C)CC[C@@H](O)[C@](C)(O)[C@H]1CC[C@@]2(O)C3=CC(=O)[C@]4(O)C[C@@H](O)[C@@H](O)C[C@]4(C)[C@H]3[C@H](O)C[C@]12C` [Muristerone A, reference compound], for which the “Mean Fold Induction at 1.0 μM Concentration” value (“Mean Fold Induction” below) with GAL4EcR + VP16RXR and in the series with GAL4RXR + VP16CfEcR was 1.0 fold each time.

With `Cc1cc(C)cc(C(=O)N(NC(=O)c2ccc3c(c2C)OCCO3)C(C)(C)C)c1` [N-(3,4-(1,2-ethylenedioxy)-2-methylbenzoyl)-N′-(3,5-dimethylbenzoyl)-N′-tert-butylhydrazine], the “Mean Fold Induction” value in the series on GAL4EcR + VP16RXR amounted to 601 fold; in the series on GAL4RXR + VP16CfEcR, 54 fold. Also, the “potency as activators of CfEcR as compared to DmEcR” value with CfEcR is listed as “more potent activators of CfEcR”.

As for `CC(C)CC[C@@H](O)[C@](C)(O)[C@H]1CC[C@@]2(O)C3=CC(=O)[C@@H]4C[C@@H](O)[C@@H](O)C[C@]4(C)[C@H]3CC[C@]12C` [Ponasterone A, reference compound], the “Mean Fold Induction” value in the series with GAL4EcR + VP16RXR and in the series on GAL4RXR + VP16CfEcR was 1.0 fold each time. The “sensitivity of the EcR/RXR switch to the ligand” value with CfEcR/RXR-based switch is reported as “insensitive”.
